In patent US11879021B2, “Cyclic peptides and uses thereof” (UNIVERSITÉ DE MONTRÉAL, priority 2016, dated 2024):
Where “and” joins values, the source holds several entries; their conditions need not be identical. Equal values may be shown once. Numbered stars: 1 amine (or outer) side, 2 acyl side, 3 side chain; on linkers, the order of the positions; unused ones are H or OH. Square brackets hold non-standard residues; d marks the D form. Peptide text beside a SMILES is read from it. azaTyr = O=C(N(Cc1ccc(O)cc1)N[*:1])[*:2]

Tests used:
CD36 = molecular target: T1, CD36 (Rattus norvegicus, UniProt Q07969); assay: Competition binding of photoactivatable [125I]-Tyr-Bpa-Ala-Hexarelin to CD36 in rat cardiac membranes; details: competition with [125I]-Tyr-Bpa-Ala-Hexarelin, rat heart membranes; for IC50: read-out: IC50 (μM), binding affinity for CD36
T1 construct: from tissue; host or cells: Heart (cardiac membranes) of Sprague Dawley rats from Charles River
Procedure: Hearts from Sprague Dawley rats (300-325 g) from Charles River were cut into small pieces and homogenized with a Polytron® at low speed, 3×15 sec in buffer A (10 mM NaHCO3, 5 mM NaN3, 10 μM Pefabloc®, 0.1 μM Aprotinin, 1 μM Pepstatin A, 1 μM Leupeptin, pH 7.0) at a concentration of […] of tissue. The homogenate was first centrifuged at 8,700×g for 20 min in a Sorvall® centrifuge and the supernatant was collected on ice. The pellet was resuspended and re-homogenized with a Glass-Teflon® Potter by 5 strokes. This homogenate was recentrifuged at 8,700×g for 10 min and the resulting supernatant was combined with the first collected supernatant. The combined supernatant was centrifuged at 35,000×g for 20 min. The pellet fraction obtained was resuspended in Buffer B (20 mM Tris-maleate, 0.6M KCl, pH 6.8) in a volume corresponding to 20 mL/g of fresh tissue using a glass homogenizer with a Teflon pestle. The resulting suspension was centrifuged again at 35,000×g for 60 min. and the pellet fraction obtained was resuspended in Buffer C (10 mM Tris/HCl buffer pH 7.4) and thoroughly homogenized in a glass with a Teflon® pestle (20 ml/g of fresh tissue). This suspension was submitted to another centrifugation at 35,000×g for 60 min. The collected pellet was resuspended in 50 mM Tris/HCl buffer pH 7.4) containing 2 mM EGTA in a final volume corresponding to 1-2 mL/g of fresh tissue. The membrane preparation obtained was frozen at −80° C. Protein concentration was determined using the bicinchoninic acid (BCA) method, employing BSA as standard.
The reaction was started by adding 3 nmol of H2O2 for 5 min at room temperature. This step was repeated twice with a period of 5 min of incubation for each addition. The reaction was stopped by diluting the mixture with 1 mL of 0.1% TFA. The radioiodinated peptide was purified by HPLC on a reverse-phase Vydac® C18 column with a 60-min linear gradient from 20% to 50% of acetonitrile in 0.1% TFA. The eluted radiolabelled tracer was collected, aliquoted (50×10^6 cpm/fraction) and stored at −80° C.
Binding studies with MPE-298 were done with increasing concentrations from 0.01 to 5 μM of competition ligands. Nonspecific binding was defined as binding not displaced by 50 μM corresponding peptide. All peptide containing solutions were diluted in Buffer B. Buffer A and B were degassed under vacuum, and used in capped tubes in order to minimize lipid peroxidation. Before the incubation period, all tubes were put under a low flow of nitrogen. All material was kept on ice and the binding assay was performed in darkness. After an incubation period of 60 min at 22° C. (vortexing every 15 min), membranes were submitted to irradiation with UV lamps (365 nm) for 15 min at 4° C. After centrifugation at 12,000×g for 15 minutes, the pellets were resuspended in 40 μl of sample buffer (62 mM Tris-HCl, pH 6.8, 2% SDS, 10% glycerol, 15% 2-mercaptoethanol, and 0.05% bromophenol blue), and boiled for 5 min prior to being subjected to electrophoresis. Proteins (50 μg/40 μl) were separated on a 7.5% SDS-PAGE Bio-Rad® Mini-Protean electrophoresis system (150 V for 1 h). The gels resulting from SDS/PAGE were fixed, colored in Coomassie Brilliant Blue R-250, dried, exposed to a storage phosphor intensifying screen (Amersham Biosciences), and analysed using a Typhoon® PhosphorImager (GE Healthcare Life Sciences®). […] The curves were analysed by using software package (Graphpad® prism version 7.0).

[1] = tested on: R-FSL-1 (TLR2 agonist)-induced NO production in RAW macrophage cell line; assay: Nitric oxide (NO) production induced by TLR2 agonist R-FSL-1 in RAW macrophage cell line; assay type: cell-based, murine; details: RAW macrophages; for suppression of R-FSL-1-mediated NO production: at the concentration tested (10^−6 or 10^−7 M), FIGS. 4A to 4F
Procedure: The murine RAW1 macrophage cell line was obtained from American Type Cell Collection (ATCC #TIB-71), seeded at 1.5×10^5 cells/well in Dulbecco's Modified Eagle's medium (DMEM) containing 100 U/mL of penicillin (Pen) and 100 μg/mL of streptomycin (Strep) on a 48-well plate (Costar® #3548), and incubated at 37° C. with 5% CO2. After 2 h, the cell culture medium of adhered cells was removed and replaced by DMEM-Pen/Strep medium containing 0.2% of bovine serum albumin (BSA), and supplemented with the cyclic peptides at a concentration of 10^−6 or 10^−7 M. MPE-001 (DBG178, His-D-Trp-Ala-AzaTyr-D-Phe-Lys-NH2) and [azaLys^6]-GHRP-6 (His-D-Trp-Ala-Trp-D-Phe-azaLys-NH2, negative control) at 10^−6 M were used as positive and negative controls, respectively. After 1 h pre-incubation, the cells were stimulated overnight using the TLR2 ligand fibroblast-stimulating lipopeptide (R-FSL-1) (Invivogen® #L7022) at a concentration of 300 ng/mL. Supernatants were then collected for nitrite production analysis by fluorescence using 2,3-diaminonaphthalene (DAN). Briefly, 25 μL of sample was incubated with 0.5 μg of DAN in a 100 μL final volume of phosphate buffer (50 mM, pH 7.5) at room temperature in the dark. After 15 min, the reaction was stopped with 20 μL of NaOH (2.8N) and the plate was read using a fluorescence plate reader (TECAN® Safire, λexc 365 nm and λem 430 nm).

[2] = tested on: R-FSL-1 (TLR2 agonist)-induced TNF-α and CCL-2 release in RAW macrophages; assay: R-FSL-1-induced TNF-α and CCL-2 release in RAW macrophages; assay type: cell-based, murine; details: 10^−7 M
Procedure: The murine RAW1 macrophage cell line was obtained from American Type Cell Collection (ATCC #TIB-71). RAW cells were seeded at 150,000 cells per well in a 48-well plate (Costar® #3548) and weaned overnight in medium (DMEM supplemented 1% penicillin/streptomycin) at 37° C. with 5% CO2. The next day, the medium was changed to DMEM-1% penicillin/streptomycin supplemented with 0.2% BSA. The cells were first pretreated with 300 μL of azapeptides DBG178 (MPE-133, reference standard), 25 (MPE-210), 26 (MPE-266), 28 (MPE-268), 32 (MPE-267), 33 (MPE-298), 38 (MPE-308), 35 (MPE-300), 39 (MPE-310) and azaLys6-GHRP-6 (as negative control) at 10^-7M for 30 min. Then, […] of the TLR2 agonist, R-FSL-1 (300 ng/ml final concentration, R-FSL-1, Invivogen® #L7022) was added for 4 h period of incubation at 37° C. with 5% CO2. At the end of the incubation period, media were collected and stored at −80° C. for TNF-α and CCL-2 assays using ELISA kits (EbioScience® #88-7391 and #88-7324). Results were analyzed by analysis of variance (ANOVA) with post hoc comparisons using Dunnett's test with a statistical software package (Graph Pad Prism® version 7.0). P<0.05 was considered statistically significant.

T1 sequence (Q07969 whole entry): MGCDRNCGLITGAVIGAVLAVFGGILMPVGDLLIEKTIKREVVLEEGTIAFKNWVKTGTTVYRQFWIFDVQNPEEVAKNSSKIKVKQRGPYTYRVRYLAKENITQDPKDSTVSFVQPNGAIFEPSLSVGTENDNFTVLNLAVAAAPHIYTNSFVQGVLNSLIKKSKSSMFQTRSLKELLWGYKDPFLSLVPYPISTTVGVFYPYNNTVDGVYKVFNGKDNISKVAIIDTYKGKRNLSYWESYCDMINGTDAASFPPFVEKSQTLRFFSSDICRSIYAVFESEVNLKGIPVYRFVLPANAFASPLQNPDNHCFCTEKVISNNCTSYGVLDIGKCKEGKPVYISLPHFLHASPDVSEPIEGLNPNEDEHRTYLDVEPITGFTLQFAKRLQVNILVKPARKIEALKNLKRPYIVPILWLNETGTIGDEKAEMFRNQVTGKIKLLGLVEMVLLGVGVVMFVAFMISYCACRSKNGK

Row | Compound | binding to CD36 (in words) (CD36) | IC50 (CD36) | suppression of R-FSL-1-mediated NO production [1] | further results
1 | C=CCN1CC#CC[C@@H](NC(=O)[C@H](C)N)C(=O)N[C@H](Cc2c[nH]c3ccccc23)C(=O)N[C@@H](C)C(=O)N[C@@H](Cc2c[nH]c3ccccc23)C(=O)N[C@H](Cc2ccccc2)C(=O)N[C@H](C(N)=O)CCCC1 [MPE-074] | detectable binding | 1.04 µM |  | 
2 | C[C@H](NC(=O)[C@@H](Cc1c[nH]c2ccccc12)NC(=O)[C@@H](N)Cc1c[nH]cn1)C(=O)NN(Cc1ccc(O)cc1)C(=O)N[C@H](Cc1ccccc1)C(=O)N[C@@H](CCCCN)C(N)=O [MPE-001, His-D-Trp-Ala-AzaTyr-D-Phe-Lys-NH2, reference compound] (H-H[dW]A[azaTyr][dF]K-NH2) |  | ~2 µM |  | 
3 | C=CCN1CC#CCC(NC(=O)[C@H](C)N)C(=O)N[C@H](Cc2c[nH]c3ccccc23)C(=O)N[C@@H](C)C(=O)N[C@@H](Cc2c[nH]c3ccccc23)C(=O)N[C@H](Cc2ccccc2)C(=O)N[C@H](C(N)=O)CCC1 (stereo partly shown) [MPE-048] | detectable binding | 13.7 µM |  | 
4 | C=CCN1CC#CCN(NC(=O)[C@H](C)NC(C)=O)C(=O)N[C@H](Cc2c[nH]c3ccccc23)C(=O)N[C@@H](C)C(=O)N[C@@H](Cc2c[nH]c3ccccc23)C(=O)N[C@H](Cc2ccccc2)C(=O)N[C@H](C(N)=O)CCCC1 [MPE-308] |  | 0.67 µM |  | suppression of NO production compared with positive control MPE-001 at the same concentration ([1]; 10^−7 M, FIG. 4F): more important; suppression of R-FSL-1-mediated NO production at 10^−7 M ([1]; 10^−7 M, further analyses, FIG. 4F): significant suppression; R-FSL-1-mediated NO production, % of control ([1]; control = R-FSL-1 only, noticeable reduction without reaching significance (P<0.01)): about 80 % of control; effect on R-FSL-1-induced CCL-2 release [2]: significant inhibitory effect; effect on R-FSL-1-induced TNF-α release [2]: significant inhibitory effect
5 | C=CCN1CC#CCN(NC(=O)[C@H](C)N)S(=O)(=O)N[C@H](Cc2c[nH]c3ccccc23)C(=O)N[C@@H](C)C(=O)N[C@@H](Cc2c[nH]c3ccccc23)C(=O)N[C@H](Cc2ccccc2)C(=O)N[C@H](C(N)=O)CCCC1 [MPE-400] | detectable binding | 11.6 µM |  | 
6 | C=CCN1CC#CC[C@H](NC(=O)[C@H](C)N)C(=O)N[C@@H](C)C(=O)N[C@@H](Cc2c[nH]c3ccccc23)C(=O)N[C@H](Cc2ccccc2)C(=O)N[C@H](C(N)=O)CCCC1 [MPE-111] | detectable binding | 0.24 µM | significant suppression | 
7 | C=CCN1CC#CC[C@H](NC(=O)[C@H](C)N)C(=O)N[C@H](Cc2c[nH]c3ccccc23)C(=O)N[C@@H](C)C(=O)N[C@@H](Cc2c[nH]c3ccccc23)C(=O)N[C@H](Cc2ccccc2)C(=O)N[C@H](C(N)=O)CCCC1 [MPE-075] | detectable binding | 0.66 µM | significant suppression | 
8 | C=CCN1CC#CCN(NC(=O)[C@@H](C)N)C(=O)N[C@H](Cc2c[nH]c3ccccc23)C(=O)N[C@@H](C)C(=O)NN(Cc2ccc(OC)cc2)C(=O)N[C@H](Cc2ccccc2)C(=O)N[C@H](C(N)=O)CCCC1 [MPE-189] | detectable binding | 3.26 µM | significant suppression | 
9 | C=CCN1CC#CCN(NC(=O)[C@H](C)N)C(=O)N[C@H](Cc2c[nH]c3ccccc23)C(=O)N[C@@H](C)C(=O)N[C@H](C(=O)N[C@H](Cc2ccccc2)C(=O)N[C@@H](CCCCN)C(N)=O)CCCC1 [MPE-300] |  | 10 µM and 10.6 µM | significant suppression | 
10 | C=CCN1CC#CC[C@@H](NC(=O)[C@H](C)N)C(=O)N[C@@H](C)C(=O)N[C@@H](Cc2c[nH]c3ccccc23)C(=O)N[C@H](Cc2ccccc2)C(=O)N[C@H](C(N)=O)CCCC1 [MPE-110] | detectable binding | 3.32 µM |  | 
11 | C=CCN1CC#CCN(NC(=O)C(N)C(C)C)C(=O)N[C@H](Cc2c[nH]c3ccccc23)C(=O)N[C@@H](C)C(=O)N[C@@H](Cc2c[nH]c3ccccc23)C(=O)N[C@H](Cc2ccccc2)C(=O)N[C@H](C(N)=O)CCCC1 (stereo in doubt) [MPE-203] |  | 2.26 µM |  | 
12 | CN1CC#CCN(NC(=O)[C@@H](Cc2c[nH]c3ccccc23)NC(=O)[C@@H](N)Cc2cnc[nH]2)C(=O)N[C@@H](Cc2c[nH]c3ccccc23)C(=O)N[C@H](Cc2ccccc2)C(=O)N[C@H](C(N)=O)CCCC1 [MPE-210] |  | 2.06 µM |  | effect on R-FSL-1-induced CCL-2 release [2]: no significant effect; effect on R-FSL-1-induced TNF-α release [2]: no significant effect
13 | C=CCN1CC#CCN(NC(=O)C(C)N)C(=O)N[C@H](Cc2c[nH]c3ccccc23)C(=O)N[C@@H](C)C(=O)N[C@@H](Cc2c[nH]c3ccccc23)C(=O)N[C@H](Cc2ccccc2)C(=O)N[C@H](C(N)=O)CCCC1 (stereo in doubt) [MPE-202] |  | 14.3 µM |  | 
